In US9926315B2, “Triazolopyridine compounds and methods for the treatment of cystic fibrosis” (Flatley Discovery Lab, LLC, priority 2014, dated 2018):

Target: T1, human ΔF508-CFTR (Homo sapiens, UniProt P13569, DEL508-508)
T1 construct: expressed in transfected cells
Test: CFTR-YFP High Throughput Assay (HTS YFP flux assay, corrector / potentiator protocols)
Type: cell-based
Conditions: FRT cells stably expressing human ΔF508-CFTR and YFP-H148Q/I152L; for Emax: normalized to positive control, read-out: Emax (% Efficacy, EMax normalized to the positive control)
Procedure: Assays for Detecting and Measuring the Effect of Compounds on dF508-CFTR Channels CFRT-YFP High Throughput Assay: Corrector Assay:
The following protocol is designed to selectively screen small molecule compounds for F508del CFTR corrector activities in the HTS YFP flux assay. In this protocol, the cells are incubated with testing compounds for 24 hours, washed with PBS, stimulated with forskolin and a standard potentiator, and read on a 384-well HTS plate reader, such as the Hamamatsu FDDD-6000.
(§1) YFP fluorescence intensity is acquired at high speed before and after iodide buffer is injected to the assay cells. Iodide enters the cells via active CFTR channels in the plasma membrane, and quenches the YFP fluorescence. The rate of fluorescence quenching is proportionally related to the total CFTR activities in the cell membrane. dF508-CFTR corrector accelerates YFP quenching by increasing the number of CFTR molecules in the testing cell plasma membrane.
This method was initially developed for bench top plate readers (Galietta, 2001), and was adapted to the HTS format (Sui, 2010).
Fisher Rat Thyroid (FRT) cells stably expressing both human ΔF508-CFTR and a halide-sensitive yellow fluorescent protein (YFP-H148Q/I152L 25, 22) (Galietta, 2001) were cultured on plastic surface in Coon's modified Ham's F12 medium supplemented with FBS 10%, L-glutamine 2 mM, penicillin 100 U/mL, and streptomycin 100 μg/mL. G418 (0.75-1.0 mg/mL) and zeocin (3.2 μg/mL) were used for selection of FRT cells expressing ΔF508-CFTR and YFP. For primary screening, FRT cells were plated into 384-well black wall, transparent bottom microtiter plates (Costar; Corning Inc.) at a cell density of 20, 000-40, 000 per well. Test compound was applied to the cells at varying concentrations ranging from 2 nM-[…] in either a 2-fold or 3-fold dilution series. Cells were incubated in a cell culture incubator at 37° C. with 5% CO2 for 24-26 h. Assay plates were washed with DPBS media (Thermo, cat#SH30028.02) to remove unbound cells and compound. Stimulation media (25 μL) containing 20 μM Forskolin & 30 μM P3 [6-(Ethyl-phenyl-sulfonyl)-4-oxo-1, 4-dihydro-quinoline-3-carboxylic acid 2-methoxy-benzylamide] in Hams F-12 coon's modified media was added to the plate wells and incubated at room temperature for 60-120 min. 25 μL of HEPES-PBS-I buffer (10 mM HEPES, 1 mM MgCl2, 3 mM KCl, 1 mM CaCl2, 150 mM NaI) was then added and fluorescence quench curves (Excitation 500 nm/Emission 540 nm; exposure 136 ms) were immediately recorded on an FDSS-6000 plate reader (Hamamatsu). Quench rates were derived from least squares fitting of the data (Sui, 2010).
The following protocol is designed to selectively screen small molecule compounds for F508del CFTR potentiator activities in the HTS YFP flux assay. In this protocol, the cells are incubated at 27° C. for 24 hours with homogeneously boosted dF508-CFTR expression in the cell membrane by the low temperature, washed with PBS, stimulated with forskolin, and read on a 384-well HTS plate reader, such as the Hamamatsu […].
as §1, with “dF508del-CFTR potentiators accelerate” for “dF508-CFTR corrector accelerates”, “increasing” for “increasing the number of”, “activities” for “molecules”
Fisher Rat Thyroid (FRT) cells stably expressing both human ΔF508-CFTR and a halide-sensitive yellow fluorescent protein (YFP-H148Q/I152L 25, 22) (Galietta, 2001) were cultured on plastic surface in Coon's modified Ham's F12 medium supplemented with FBS 10%, L-glutamine 2 mM, penicillin 100 U/mL, and streptomycin 100 μg/mL. G418 (0.75-1.0 mg/mL) and zeocin (3.2 μg/mL) were used for selection of FRT cells expressing ΔF508-CFTR and YFP. […]

T1 sequence (P13569 with tags, fused parts or gaps DEL508-508): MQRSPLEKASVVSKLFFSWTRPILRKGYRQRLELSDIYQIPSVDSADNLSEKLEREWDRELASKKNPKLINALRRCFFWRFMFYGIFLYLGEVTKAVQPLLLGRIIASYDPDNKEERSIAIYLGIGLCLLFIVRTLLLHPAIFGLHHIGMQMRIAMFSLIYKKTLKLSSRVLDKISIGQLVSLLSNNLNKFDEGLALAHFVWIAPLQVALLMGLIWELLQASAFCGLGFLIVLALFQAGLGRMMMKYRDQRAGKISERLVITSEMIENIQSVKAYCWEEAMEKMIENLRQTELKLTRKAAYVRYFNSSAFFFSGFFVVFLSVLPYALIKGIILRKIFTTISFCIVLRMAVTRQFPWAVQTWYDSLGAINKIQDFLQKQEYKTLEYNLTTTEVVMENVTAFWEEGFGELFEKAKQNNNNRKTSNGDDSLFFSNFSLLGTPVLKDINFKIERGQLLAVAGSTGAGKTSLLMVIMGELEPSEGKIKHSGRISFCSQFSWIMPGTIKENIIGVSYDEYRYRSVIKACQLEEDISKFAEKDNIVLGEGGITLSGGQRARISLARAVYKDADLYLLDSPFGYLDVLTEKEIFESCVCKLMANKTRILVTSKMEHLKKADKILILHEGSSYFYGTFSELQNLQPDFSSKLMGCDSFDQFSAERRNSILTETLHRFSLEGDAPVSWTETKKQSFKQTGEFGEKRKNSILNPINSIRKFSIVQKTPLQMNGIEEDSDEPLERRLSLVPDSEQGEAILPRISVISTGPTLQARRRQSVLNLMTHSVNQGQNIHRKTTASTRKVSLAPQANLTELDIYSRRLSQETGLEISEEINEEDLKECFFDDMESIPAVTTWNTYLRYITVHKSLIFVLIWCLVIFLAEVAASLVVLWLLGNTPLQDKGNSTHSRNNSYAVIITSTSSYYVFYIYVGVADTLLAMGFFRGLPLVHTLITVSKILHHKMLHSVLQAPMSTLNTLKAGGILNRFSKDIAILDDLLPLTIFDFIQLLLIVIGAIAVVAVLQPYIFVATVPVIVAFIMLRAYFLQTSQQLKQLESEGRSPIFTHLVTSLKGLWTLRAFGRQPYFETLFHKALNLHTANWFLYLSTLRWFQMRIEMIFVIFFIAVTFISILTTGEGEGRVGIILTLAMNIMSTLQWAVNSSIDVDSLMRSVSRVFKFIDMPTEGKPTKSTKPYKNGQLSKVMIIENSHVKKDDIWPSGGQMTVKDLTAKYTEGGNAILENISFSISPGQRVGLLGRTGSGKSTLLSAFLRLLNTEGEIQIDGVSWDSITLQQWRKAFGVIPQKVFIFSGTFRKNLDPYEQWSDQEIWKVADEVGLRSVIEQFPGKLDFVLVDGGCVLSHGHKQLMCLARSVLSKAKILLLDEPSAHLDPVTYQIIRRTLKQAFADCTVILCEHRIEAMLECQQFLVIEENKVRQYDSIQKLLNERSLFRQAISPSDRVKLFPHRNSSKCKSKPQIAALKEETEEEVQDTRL

In the case of `O=S(=O)(c1ccccc1)c1ccc2nc(NC[C@@H](O)c3ccccc3)nn2c1` [Example 85], the EC50 is reported as less than 1000 nM and the Emax is reported as greater than 80%.

In the case of `O=S(=O)(c1ccccc1)c1ccc2nnc(NCCC3CCCCC3)n2c1` [Example 76], the EC50 is reported as 1000 to 10000 nM and the Emax is reported as greater than 80%.

`CCN(CC)S(=O)(=O)c1ccc2nnc(NCC(=O)Nc3ccc(C)c(C)c3)n2c1` [Example 22] gave an EC50 of less than 1000 nM and an Emax of 40 to 80%.

`CCN(CC)S(=O)(=O)c1ccc2nnc(N[C@H](C)c3ccc(F)cc3)n2c1` [Example 41] showed an EC50 of less than 1000 nM and an Emax greater than 80%.

`CCN(CC)S(=O)(=O)c1ccc2nnc(N[C@@H]3C[C@H]4CC[C@@H]3C4)n2c1` [Example 33] gave an EC50 of less than 1000 nM and an Emax greater than 80%.

`CCN(CC)S(=O)(=O)c1ccc2nnc(N[C@@H](c3ccccc3)C(C)C)n2c1` [Example 51] showed an EC50 of less than 1000 nM and an Emax greater than 80%.

For `CCN(CC)S(=O)(=O)c1ccc2nnc(NCC(C)(C)O)n2c1` [Example 18], the EC50 was 1000 to 10000 nM and the Emax was 40 to 80%.

With `CCN(CC)S(=O)(=O)c1ccc2nnc(NCc3ccc(C(F)(F)F)cc3)n2c1` [Example 48] the EC50 was less than 1000 nM and the Emax was greater than 80%.

`CCN(CC)S(=O)(=O)c1ccc2nnc(N[C@@H](C)c3ccccc3)n2c1` [Example 21] showed an EC50 of less than 1000 nM and an Emax greater than 80%.

`O=S(=O)(c1ccccc1)c1ccc2nnc(NCC(O)COc3ccccc3)n2c1` (stereo not drawn) [Example 67] gave an EC50 of less than 1000 nM and an Emax greater than 80%.

`O=S(=O)(c1ccccc1)c1ccc2nnc(NCc3ccc(C(F)(F)F)cc3)n2c1` [Example 63] showed an EC50 of less than 1000 nM and an Emax of 40 to 80%.

Work on `COC[C@@H](Nc1nnc2ccc(S(=O)(=O)c3ccccc3)cn12)c1ccccc1` [Example 68] yielded an EC50 of less than 1000 nM and an Emax greater than 80%.

In the case of `O=S(=O)(c1ccccc1)c1ccc2nnc(NCC(O)C3CCCCC3)n2c1` (stereo not drawn) [Example 66], the EC50 is reported as less than 1000 nM and the Emax is reported as greater than 80%.

`CCN(CC)S(=O)(=O)c1ccc2nnc(NCC(O)COC)n2c1` (stereo not drawn) [Example 24] gave an EC50 of 1000 to 10000 nM and an Emax greater than 80%.

Molecule `O=S(=O)(c1ccccc1)c1ccc2nnc(NCC(O)C3CCCC3)n2c1` (stereo not drawn) [Example 73] has an EC50 of less than 1000 nM and an Emax greater than 80%.

`CCN(CC)S(=O)(=O)c1ccc2nnc(N(C)Cc3ccccc3)n2c1` [Example 3] was tested, and the EC50 was less than 1000 nM and the Emax was 40 to 80%.

For `COc1cccc(S(=O)(=O)c2ccc3nnc(N[C@H](C)c4ccccc4)n3c2)c1` [Example 71], the EC50 was 1000 to 10000 nM and the Emax was greater than 80%.

With `CCN(CC)S(=O)(=O)c1ccc2nnc(NCc3ccc(OC)cc3)n2c1` [Example 16] the EC50 was less than 1000 nM and the Emax was 40 to 80%.

`CCN(CC)S(=O)(=O)c1ccc2nnc(NC3CCCCC3)n2c1` [Example 11] gave an EC50 of less than 1000 nM and an Emax greater than 80%.

Work on `O=S(=O)(c1ccccc1)c1ccc2nnc(NCC(O)C3CCCCCC3)n2c1` (stereo not drawn) [Example 78] yielded an EC50 of less than 1000 nM and an Emax greater than 80%.

For `CCN(CC)S(=O)(=O)c1ccc2nnc(N[C@@H](C)C(=O)N3CCCCC3)n2c1` [Example 57], the EC50 was 1000 to 10000 nM and the Emax was 40 to 80%.

Work on `c1ccc(-c2ccc3nc(Nc4ccc(-c5ccccn5)cc4)nn3c2)cc1` [Example 100, 6-phenyl-N-(4-(pyridin-2-yl)phenyl)-[1,2,4]triazolo[1,5-a]pyridin-2-amine] yielded an EC50 of 1000 to 10000 nM and an Emax of 40 to 80%.

Work on `CCN(CC)S(=O)(=O)c1ccc2nnc(N[C@@H](C)c3ccc(C)cc3)n2c1` [Example 38] yielded an EC50 of less than 1000 nM and an Emax greater than 80%.

For `CCN(CC)S(=O)(=O)c1ccc2nnc(NC3CCc4ccccc43)n2c1` (stereo not drawn) [Example 30], the EC50 was less than 1000 nM and the Emax was greater than 80%.

`O=S(=O)(c1ccccc1)c1ccc2nc(NCc3ccc(C4CCOCC4)cc3)nn2c1` [Example 92] was tested, and the EC50 was 1000 to 10000 nM and the Emax was 40 to 80%.

`CCN(CC)S(=O)(=O)c1ccc2nnc(NCc3ccc(OC(C)C)cc3)n2c1` [Example 36] showed an EC50 of less than 1000 nM and an Emax greater than 80%.

`CCN(CC)S(=O)(=O)c1ccc2nnc(NCCc3ccccc3)n2c1` [Example 25] was tested, and the EC50 was less than 1000 nM and the Emax was greater than 80%.

In the case of `CCN(CC)S(=O)(=O)c1ccc2nnc(NCc3ccccc3F)n2c1` [Example 54], the EC50 is reported as 1000 to 10000 nM and the Emax is reported as greater than 80%.

`CCC(Nc1nnc2ccc(S(=O)(=O)N(CC)CC)cn12)c1ccccc1` (stereo not drawn) [Example 29] was tested, and the EC50 was less than 1000 nM and the Emax was greater than 80%.

With `CCOC(=O)OC(CNc1nnc2ccc(S(=O)(=O)c3ccccc3)cn12)C1CCCCC1` (stereo not drawn) [Example 77] the EC50 was less than 1000 nM and the Emax was greater than 80%.

With `CCN(CC)S(=O)(=O)c1ccc2nnc(N[C@@H]3CCc4ccccc43)n2c1` [Example 46] the EC50 was less than 1000 nM and the Emax was 40 to 80%.

Work on `CCN(CC)S(=O)(=O)c1ccc2nnc(NC[C@H]3CCCO3)n2c1` [Example 23] yielded an EC50 greater than 10000 nM and an Emax greater than 80%.

Work on `O=S(=O)(c1ccccc1)c1ccc2nc(NCC(O)C3CCCCC3)nn2c1` (stereo not drawn) [Example 84] yielded an EC50 of 1000 to 10000 nM and an Emax greater than 80%.

Molecule `CCN(CC)S(=O)(=O)c1ccc2nnc(NC(C)C(C)C)n2c1` (stereo not drawn) [Example 43] has an EC50 of less than 1000 nM and an Emax greater than 80%.

In the case of `CCN(CC)S(=O)(=O)c1ccc2nnc(N[C@H](C)c3ccccc3)n2c1` [Example 20], the EC50 is reported as less than 1000 nM and the Emax is reported as greater than 80%.

`CCN(CC)S(=O)(=O)c1ccc2nnc(NCc3ccc(-c4ccccc4)cc3)n2c1` [Example 5] showed an EC50 of less than 1000 nM and an Emax greater than 80%.

With `CCN(CC)S(=O)(=O)c1ccc2nnc(NC3CCc4ccccc4C3)n2c1` (stereo not drawn) [Example 32] the EC50 was 1000 to 10000 nM and the Emax was 40 to 80%.

In the case of `C[C@@H](Nc1nc2ccc(S(=O)(=O)c3ccccc3)cn2n1)c1ccccc1` [Example 81], the EC50 is reported as less than 1000 nM and the Emax is reported as greater than 80%.

Molecule `CCN(CC)S(=O)(=O)c1ccc2nnc(NC3CCOc4ccccc43)n2c1` (stereo not drawn) [Example 44] has an EC50 of less than 1000 nM and an Emax greater than 80%.

For `O=S(=O)(c1ccccc1)c1ccc2nnc(NCc3ccc(-c4ccccn4)cc3)n2c1` [Example 65], the EC50 was less than 1000 nM and the Emax was greater than 80%.

In the case of `CCN(CC)S(=O)(=O)c1ccc2nnc(NCc3ccccc3C)n2c1` [Example 13], the EC50 is reported as less than 1000 nM and the Emax is reported as 40 to 80%.

`CCN(CC)S(=O)(=O)c1ccc2nnc(NCC(C)(C)C)n2c1` [Example 7] gave an EC50 of less than 1000 nM and an Emax of 40 to 80%.

`CN1CCC(c2ccc(CNc3nc4ccc(S(=O)(=O)c5ccccc5)cn4n3)cc2)CC1` [Example 93] gave an EC50 of less than 1000 nM and an Emax greater than 80%.

`CCN(CC)S(=O)(=O)c1ccc2nnc(N[C@@H](Cc3ccccc3)C(=O)N3CCCCC3)n2c1` [Example 53] gave an EC50 of less than 1000 nM and an Emax greater than 80%.

Molecule `O=S(=O)(c1ccccc1)c1ccc2nnc(NC3Cc4ccccc4C3)n2c1` [Example 64] has an EC50 of less than 1000 nM and an Emax greater than 80%.

In the case of `CCN(CC)S(=O)(=O)c1ccc2nnc(NC3Cc4ccccc4C3)n2c1` [Example 4], the EC50 is reported as less than 1000 nM and the Emax is reported as greater than 80%.

With `CCN(CC)S(=O)(=O)c1ccc2nnc(NCC3CC3)n2c1` [Example 8] the EC50 was less than 1000 nM and the Emax was greater than 80%.

Work on `CCN(CC)S(=O)(=O)c1ccc2nnc(NC(=O)c3ccccc3)n2c1` [Example 12] yielded an EC50 of 1000 to 10000 nM and an Emax of 40 to 80%.

Work on `O=S(=O)(c1ccccc1)c1ccc2nc(NCCC3CCCCC3)nn2c1` [Example 88] yielded an EC50 of less than 1000 nM and an Emax greater than 80%.

`Cc1ccc([C@@H](C)Nc2nc3ccc(S(=O)(=O)c4ccccc4)cn3n2)cc1` [Example 90] was tested, and the EC50 was 1000 to 10000 nM and the Emax was 40 to 80%.

Work on `O=S(=O)(c1ccccc1)c1ccc2nnc(NCC(O)c3ccc(F)cc3)n2c1` (stereo not drawn) [Example 75] yielded an EC50 of less than 1000 nM and an Emax greater than 80%.
